Experimental data published in ChEMBL document CHEMBL1201862, “PubChem BioAssay data set” (2004).
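Values below derive from 48-hour exposures of cells grown in 96-well plates, with endpoints linearly interpolated between the two concentrations bracketing the appropriate inhibition level. At the GI50, growth is halved.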 Active and inactive are the calls of the source. Cut-off read from the data, not from the text of the source: active = GI50 up to about 1.1 µM and inactive = higher.

Legend:
Assay in all cases: DTP human tumour cell line panel, 48 h
[1] = system: A498
[2] = system: HT-29
[3] = system: HL-60
[4] = system: SN12C
[5] = system: SNB-19
[6] = system: KM12
[7] = system: RXF 393
[8] = system: TK-10
[9] = system: SK-OV-3
[10] = system: IGROV-1
[11] = system: 786-0
[12] = system: MOLT-4
[13] = system: NCI-H23
[14] = system: HOP-62
[15] = system: SW-620
[16] = system: SK-MEL-28
[17] = system: NCI-H226
[18] = system: COLO 205
[19] = system: SF-539
[20] = system: SNB-75

| SMILES | GI50 [1] | GI50 [2] | GI50 [3] | GI50 [4] | GI50 [5] | GI50 [6] | GI50 [7] | GI50 [8] | GI50 [9] | GI50 [10] | GI50 [11] | GI50 [12] | GI50 [13] | GI50 [14] | GI50 [15] | GI50 [16] | GI50 [17] | GI50 [18] | GI50 [19] | GI50 [20] |
| --- | --- | --- | --- | --- | --- | --- | --- | --- | --- | --- | --- | --- | --- | --- | --- | --- | --- | --- | --- | --- |
| CNc1ccc2c(c1)[C@@]1(C)c3ccccc3[C@@H](C2)N1C | 26.4 µM (inactive) | 18.8 µM (inactive) | 14.7 µM (inactive) | 17.4 µM (inactive) | 37.8 µM (inactive) | 22.4 µM (inactive) | 20.3 µM (inactive) | 28.8 µM (inactive) | 43.8 µM (inactive) | 48.9 µM (inactive) | 17.4 µM (inactive) | 17.5 µM (inactive) | 22.6 µM (inactive) | 42.1 µM (inactive) | 33.7 µM (inactive) |  |  |  |  |  |
| O=P1(O)c2ccccc2CS(=O)(=O)Cc2ccccc21 | > 100 µM (inactive) | > 100 µM (inactive) | > 100 µM (inactive) | > 100 µM (inactive) | > 100 µM (inactive) | > 100 µM (inactive) | > 100 µM (inactive) | > 100 µM (inactive) | > 100 µM (inactive) | > 100 µM (inactive) | > 100 µM (inactive) | > 100 µM (inactive) | > 100 µM (inactive) | > 100 µM (inactive) | > 100 µM (inactive) | > 100 µM (inactive) | > 100 µM (inactive) | > 100 µM (inactive) | > 100 µM (inactive) |  |
| CN(C)/N=C(/c1nc2ccc(Cl)cc2nc1O)C(O)c1ccc(C(O)/C(=N\N(C)C)c2nc3ccc(Cl)cc3nc2O)cc1 (stereo not given) | 61 µM (inactive) | > 100 µM (inactive) | 27.9 µM (inactive) | > 100 µM (inactive) | > 100 µM (inactive) | > 100 µM (inactive) | > 100 µM (inactive) | > 100 µM (inactive) | > 100 µM (inactive) | > 100 µM (inactive) | > 100 µM (inactive) | 52.4 µM (inactive) | > 100 µM (inactive) | 93.1 µM (inactive) | > 100 µM (inactive) | > 100 µM (inactive) |  | > 100 µM (inactive) | > 100 µM (inactive) |  |
| CCCCCCCC(=O)OCC1OC(n2cc(F)c(=O)[nH]c2=O)C(NC(=O)OCc2ccccc2)C(OC(=O)CCCCCCC)C1O (stereo not given) | > 100 µM (inactive) | 29.8 µM (inactive) | 16.5 µM (inactive) | 14.1 µM (inactive) | 0.11 µM (active) | 35.3 µM (inactive) | 20.2 µM (inactive) | 38 µM (inactive) | > 100 µM (inactive) | > 100 µM (inactive) | 23.5 µM (inactive) | 9.93 µM (inactive) | 41.4 µM (inactive) | 71.8 µM (inactive) | 35 µM (inactive) | 36.5 µM (inactive) |  | 26 µM (inactive) | 26.3 µM (inactive) | 24.5 µM (inactive) |
| O=CNCNCCO | > 100 µM (inactive) | 55.1 µM (inactive) | 20.7 µM (inactive) |  | > 100 µM (inactive) |  | > 100 µM (inactive) | > 100 µM (inactive) | > 100 µM (inactive) | > 100 µM (inactive) | > 100 µM (inactive) | > 100 µM (inactive) | > 100 µM (inactive) | > 100 µM (inactive) | 46 µM (inactive) | > 100 µM (inactive) | > 100 µM (inactive) |  |  | > 100 µM (inactive) |
| CC(C)C(=O)/C=C/c1ccc(Br)cc1 | 14.5 µM (inactive) | 14.7 µM (inactive) | 10.8 µM (inactive) | 14.1 µM (inactive) | 16 µM (inactive) | 13.8 µM (inactive) | 18.3 µM (inactive) | 16.9 µM (inactive) | 22.3 µM (inactive) | 19.2 µM (inactive) | 11.2 µM (inactive) | 19.2 µM (inactive) | 17.7 µM (inactive) |  | 5.51 µM (inactive) | 20.1 µM (inactive) |  | 23.4 µM (inactive) | 21.1 µM (inactive) | 18.1 µM (inactive) |
| CCCOC1OC(CS(=O)(=O)O)C(O)C(O)C1O (stereo not given) | > 100 µM (inactive) | > 100 µM (inactive) | > 100 µM (inactive) | > 100 µM (inactive) | > 100 µM (inactive) | > 100 µM (inactive) | > 100 µM (inactive) | > 100 µM (inactive) | > 100 µM (inactive) | > 100 µM (inactive) |  | > 100 µM (inactive) | > 100 µM (inactive) | > 100 µM (inactive) | > 100 µM (inactive) | > 100 µM (inactive) | > 100 µM (inactive) | > 100 µM (inactive) |  | > 100 µM (inactive) |
| CSc1nc2nc(C)c(C)nc2c(=O)[nH]1 | > 100 µM (inactive) | > 100 µM (inactive) | > 100 µM (inactive) | > 100 µM (inactive) | > 100 µM (inactive) | > 100 µM (inactive) | > 100 µM (inactive) | > 100 µM (inactive) | > 100 µM (inactive) | > 100 µM (inactive) | > 100 µM (inactive) | 51.2 µM (inactive) | > 100 µM (inactive) | > 100 µM (inactive) | > 100 µM (inactive) | > 100 µM (inactive) |  | > 100 µM (inactive) |  | > 100 µM (inactive) |
| S=C(S)N1CCN(c2ccccc2)CC1 | > 100 µM (inactive) | > 100 µM (inactive) | 9.31 µM (inactive) | > 100 µM (inactive) | > 100 µM (inactive) | > 100 µM (inactive) | > 100 µM (inactive) | > 100 µM (inactive) |  | > 100 µM (inactive) | 45.1 µM (inactive) |  |  | > 100 µM (inactive) | 71.9 µM (inactive) | 45.9 µM (inactive) |  | 57.5 µM (inactive) | > 100 µM (inactive) | > 100 µM (inactive) |
| COc1cc(C)cc(OC)c1/C=C/C(=O)O | > 100 µM (inactive) | > 100 µM (inactive) | > 100 µM (inactive) | > 100 µM (inactive) | > 100 µM (inactive) | > 100 µM (inactive) | > 100 µM (inactive) | > 100 µM (inactive) |  | > 100 µM (inactive) | > 100 µM (inactive) | > 100 µM (inactive) | > 100 µM (inactive) | > 100 µM (inactive) | > 100 µM (inactive) | > 100 µM (inactive) | > 100 µM (inactive) |  |  |  |
| CC(C)=CCN1c2ccc(Cl)cc2NC(=O)CC1C (stereo not given) | 21.8 µM (inactive) | 17.5 µM (inactive) | 13 µM (inactive) | 19.6 µM (inactive) | 36.9 µM (inactive) | 28.3 µM (inactive) | 24.9 µM (inactive) | 35.2 µM (inactive) | 34.7 µM (inactive) | 21.8 µM (inactive) | 18.2 µM (inactive) | 48.4 µM (inactive) | 22.6 µM (inactive) | 23.5 µM (inactive) | 34.4 µM (inactive) | 41.9 µM (inactive) | 7.94 µM (inactive) | 21.6 µM (inactive) | 20.5 µM (inactive) |  |
| CCOC(=O)c1csc(NC(=O)CCN2CCCCC2)n1 | > 100 µM (inactive) | > 100 µM (inactive) | > 100 µM (inactive) |  | > 100 µM (inactive) |  | > 100 µM (inactive) | > 100 µM (inactive) | > 100 µM (inactive) | > 100 µM (inactive) |  | 73.3 µM (inactive) | > 100 µM (inactive) | > 100 µM (inactive) | > 100 µM (inactive) | > 100 µM (inactive) |  | > 100 µM (inactive) | > 100 µM (inactive) |  |
| BrP(NC1CCCCCC1)(c1ccccc1)(c1ccccc1)c1ccccc1 | 0.986 µM (active) | 2.1 µM (inactive) | 1.9 µM (inactive) | 5.06 µM (inactive) | 4.66 µM (inactive) | 0.873 µM (active) | 2.2 µM (inactive) | 6.58 µM (inactive) |  | 3.96 µM (inactive) | 7.53 µM (inactive) |  | 5.12 µM (inactive) | 8.79 µM (inactive) | 3.09 µM (inactive) | 2.4 µM (inactive) | 13.5 µM (inactive) | 1.78 µM (inactive) | 14.1 µM (inactive) |  |
| C=CC[N+]12CN3CN(CN(C3)C1)C2 | 32.8 µM (inactive) | 17.9 µM (inactive) | 35.3 µM (inactive) | 23.4 µM (inactive) | 40 µM (inactive) | 29 µM (inactive) | 18.5 µM (inactive) | 22.6 µM (inactive) | > 100 µM (inactive) | 27.4 µM (inactive) |  | 33.4 µM (inactive) | 24.2 µM (inactive) | > 100 µM (inactive) | 5.94 µM (inactive) | 21.3 µM (inactive) |  | 25.9 µM (inactive) | 16.9 µM (inactive) | 25.1 µM (inactive) |
| CCOC(=O)c1ccc(C(=O)n2ccnc2)[nH]1 | > 100 µM (inactive) |  | > 100 µM (inactive) | > 100 µM (inactive) | > 100 µM (inactive) | > 100 µM (inactive) | 85.7 µM (inactive) | > 100 µM (inactive) |  | > 100 µM (inactive) | > 100 µM (inactive) | > 100 µM (inactive) | > 100 µM (inactive) | > 100 µM (inactive) | > 100 µM (inactive) | > 100 µM (inactive) | > 100 µM (inactive) | > 100 µM (inactive) |  | 63.5 µM (inactive) |
| O=C1CCC2COc3ccc(O)c1c32 (stereo not given) | > 100 µM (inactive) | > 100 µM (inactive) | > 100 µM (inactive) | > 100 µM (inactive) | 24.1 µM (inactive) |  | > 100 µM (inactive) | > 100 µM (inactive) | > 100 µM (inactive) | > 100 µM (inactive) |  | > 100 µM (inactive) | > 100 µM (inactive) |  | > 100 µM (inactive) | > 100 µM (inactive) |  | > 100 µM (inactive) | > 100 µM (inactive) | 77.6 µM (inactive) |
